For 16 molecules, IC50 and DC50 results are on record in US20230167118A1, “DEGRADATION OF BRUTON'S TYROSINE KINASE (BTK) BY CONJUGATION OF BTK INIDBITORS WITH E3 LIGASE LIGAND AND METHODS OF USE” (BEIGENE, LTD., priority 2020, published 2023).

One assay has as its system HEK-293 cells. Kind of assay: HEK-293 Cytotoxicity Assay (CellTiter-Glo). Type of assay: cell-based. To be noted: Homo sapiens, HEK293, 72 h incubation, CellTiter-Glo luminescence. A digest of the protocol: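 Four-parameter fit of % inhibition gives IC50, from CellTiter-Glo luminescent viability read-out. Cells exposed for 72 h to an 8-point, 4-fold series at 0.2% DMSO.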

The target of the next assay is T1, BTK (Homo sapiens, UniProt Q06187).
T1 construct: High control=Cell group with added DMSO and without compound, indicating microplate readings without BTK degradation; endogenous in cells; host or cells: TMD-8 cells
Put plainly: Cell Degradation: BTK degradation in TMD-8 cells, HTRF assay. Type of assay: cell-based. To be noted: 6 h treatment, IC50 (DC50) of BTK degradation. A digest of the protocol: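 BTK levels read by HTRF (665 vs 620 nm) in lysates of TMD-8 cells after 6 h compound exposure (eight doses, 6-fold steps, 0.2% DMSO). Percent degradation relative to controls; four-parameter curve fitting gave DC50, with Dmax the top degradation.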

The structures appear in SMILES notation.

T1 sequence (Q06187 whole entry): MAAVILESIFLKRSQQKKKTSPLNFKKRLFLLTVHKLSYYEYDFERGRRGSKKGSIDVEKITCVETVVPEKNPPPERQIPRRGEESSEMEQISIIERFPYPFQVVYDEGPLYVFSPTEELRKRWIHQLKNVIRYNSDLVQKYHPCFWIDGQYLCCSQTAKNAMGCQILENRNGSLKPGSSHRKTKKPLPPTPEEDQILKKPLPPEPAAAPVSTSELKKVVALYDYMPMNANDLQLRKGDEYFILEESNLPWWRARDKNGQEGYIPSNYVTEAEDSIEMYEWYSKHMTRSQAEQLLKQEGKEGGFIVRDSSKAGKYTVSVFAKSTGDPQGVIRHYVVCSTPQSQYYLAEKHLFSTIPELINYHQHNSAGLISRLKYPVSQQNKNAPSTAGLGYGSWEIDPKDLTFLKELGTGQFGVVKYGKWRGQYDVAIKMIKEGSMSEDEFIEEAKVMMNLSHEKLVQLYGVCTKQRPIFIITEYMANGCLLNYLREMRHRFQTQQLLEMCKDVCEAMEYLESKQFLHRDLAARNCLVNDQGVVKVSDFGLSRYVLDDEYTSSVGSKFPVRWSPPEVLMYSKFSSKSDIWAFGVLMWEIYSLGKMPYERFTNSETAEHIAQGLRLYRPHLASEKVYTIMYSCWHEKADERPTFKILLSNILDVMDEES

In the assay with HEK-293 cells, `Cc1cc(-c2ncnc3[nH]c(-c4ccc(N5CCN(CC6CCN(c7ccc(N8CCC(=O)NC8=O)cc7)CC6)CC5)cc4)cc23)ccc1CNC(=O)c1cn(C(C)(C)C)nn1` [Example 37, 1-(tert-butyl)-N-(4-(6-(4-(4-((1-(4-(2,4-dioxotetrahydropyrimidin-1(2H)-yl)phenyl)piperidin-4-yl)methyl)piperazin-1-yl)phenyl)-7H-pyrrolo[2,3-d]pyrimidin-4-yl)-2-methylbenzyl)-1H-1,2,3-triazole-4-carboxamide] returned an IC50 above 10000 nM. This molecule showed a DC50 on BTK of 1.2 nM.
In the assay with HEK-293 cells, `Cc1cc(-c2ncnc3[nH]c(-c4ccc(N5CCN(CC6CCN(c7ccc(N8CCC(=O)NC8=O)cc7)CC6)CC5)cn4)cc23)ccc1[C@@H](C)NC(=O)c1nnc(C(C)(C)C)o1` [Example 185, (R)-5-(tert-butyl)-N-(1-(4-(6-(5-(4-((1-(4-(2,4-dioxotetrahydropyrimidin-1(2H)-yl)phenyl)piperidin-4-yl)methyl)piperazin-1-yl)pyridin-2-yl)-7H-pyrrolo[2,3-d]pyrimidin-4-yl)-2-methylphenyl)ethyl)-1,3,4-oxadiazole-2-carboxamide] returned an IC50 above 10000 nM. Further, on BTK, the DC50 is 0.5 nM.
In the assay with HEK-293 cells, `CC(C)(C)c1noc(C(=O)NCc2ccc(-c3ncnc4[nH]c(-c5ccc(N6CCN(CC7CCN(c8ccc(N9CCC(=O)NC9=O)cc8)CC7)CC6)cc5)cc34)cc2F)n1` [Example 32, 3-(tert-butyl)-N-(4-(6-(4-(4-((1-(4-(2,4-dioxotetrahydropyrimidin-1(2H)-yl)phenyl)piperidin-4-yl)methyl)piperazin-1-yl)phenyl)-7H-pyrrolo[2,3-d]pyrimidin-4-yl)-2-fluorobenzyl)-1,2,4-oxadiazole-5-carboxamide] yielded an IC50 above 10000 nM. This molecule yielded a DC50 at BTK of 1.7 nM.
`COc1ccc(C(=O)N2CCC(c3ccc(-c4cc5c(-c6ccc(CNC(=O)c7nc(C(C)(C)C)no7)c(C)c6)ncnc5[nH]4)cc3)CC2)cc1N1CCC(=O)NC1=O` [Example 12, 3-(tert-butyl)-N-(4-(6-(4-(1-(3-(2,4-dioxotetrahydropyrimidin-1(2H)-yl)-4-methoxybenzoyl)piperidin-4-yl)phenyl)-7H-pyrrolo[2,3-d]pyrimidin-4-yl)-2-methylbenzyl)-1,2,4-oxadiazole-5-carboxamide]: the IC50 in the assay on HEK-293 cells was above 10000 nM. The molecule also yielded a DC50 on BTK of 2 nM.
In the same order, the values of `Cc1cc(-c2ncnc3[nH]c(-c4ccc(C5CCN(CCC6CCN(c7ccc(N8CCC(=O)NC8=O)cc7)CC6)CC5)cc4)cc23)ccc1CNC(=O)c1nc(C(C)(C)C)no1` [Example 3, 3-(tert-butyl)-N-(4-(6-(4-(1-(2-(1-(4-(2,4-dioxotetrahydropyrimidin-1(2H)-yl)phenyl)piperidin-4-yl)ethyl)piperidin-4-yl)phenyl)-7H-pyrrolo[2,3-d]pyrimidin-4-yl)-2-methylbenzyl)-1,2,4-oxadiazole-5-carboxamide] are 1700 nM and 3.8 nM.
In the same order, the values of `Cc1cc(-c2ncnc3[nH]c(-c4ccc(N5CCN(CC6CCN(c7ccc(N8CCC(=O)N(C)C8=O)cc7)CC6)CC5)nc4)cc23)ccc1[C@@H](C)NC(=O)c1nc(C(C)(C)C)no1` [Example 146, (R)-3-(tert-butyl)-N-(1-(2-methyl-4-(6-(6-(4-((1-(4-(3-methyl-2,4-dioxotetrahydropyrimidin-1(2H)-yl)phenyl)piperidin-4-yl)methyl)piperazin-1-yl)pyridin-3-yl)-7H-pyrrolo[2,3-d]pyrimidin-4-yl)phenyl)ethyl)-1,2,4-oxadiazole-5-carboxamide] are above 10000 nM and above 2000 nM.
In the same order, the values of `Cc1cc(-c2ncnc3[nH]c(-c4ccc(C5CCN(CC6CCN(c7ccc8c(c7)CN(C7CCC(=O)NC7=O)C8=O)CC6)CC5)cc4)cc23)ccc1CNC(=O)c1nc(C(C)(C)C)no1` (centres unmarked) [Example 17, 3-(tert-butyl)-N-(4-(6-(4-(1-((1-(2-(2,6-dioxopiperidin-3-yl)-1-oxoisoindolin-5-yl)piperidin-4-yl)methyl)piperidin-4-yl)phenyl)-7H-pyrrolo[2,3-d]pyrimidin-4-yl)-2-methylbenzyl)-1,2,4-oxadiazole-5-carboxamide] are above 10000 nM and 3.2 nM.
In the assay with HEK-293 cells, `Cc1cc(-c2ncnc3[nH]c(-c4ncc(N5CCN(CC6CCN(c7ccc(N8CCC(=O)NC8=O)cc7)CC6)CC5)s4)cc23)ccc1[C@@H](C)NC(=O)c1nc(C(C)(C)C)no1` [Example 186, (R)-3-(tert-butyl)-N-(1-(4-(6-(5-(4-((1-(4-(2,4-dioxotetrahydropyrimidin-1(2H)-yl)phenyl)piperidin-4-yl)methyl)piperazin-1-yl)thiazol-2-yl)-7H-pyrrolo[2,3-d]pyrimidin-4-yl)-2-methylphenyl)ethyl)-1,2,4-oxadiazole-5-carboxamide] came in with an IC50 above 10000 nM. This molecule gave a DC50 at BTK of 1.04 nM.
In the same order, the values of `Cc1cc(-c2ncnc3[nH]c(-c4ccc(N5CCN(CC6CCN(c7ccc(N8CCC(=O)NC8=O)cc7)CC6)CC5)cc4)cc23)ccc1CNC(=O)c1nc(C(C)(C)C)no1` [Example 18, 3-(tert-butyl)-N-(4-(6-(4-(4-((1-(4-(2,4-dioxotetrahydropyrimidin-1(2H)-yl)phenyl)piperidin-4-yl)methyl)piperazin-1-yl)phenyl)-7H-pyrrolo[2,3-d]pyrimidin-4-yl)-2-methylbenzyl)-1,2,4-oxadiazole-5-carboxamide] are above 10000 nM and 1.7 nM.
In the same order, the values of `Cc1cc(-c2ncnc3[nH]c(-c4ccc(N5CCN(CC6CCN(c7ccc(N8CCC(=O)NC8=O)cc7)CC6)CC5)nc4)cc23)ccc1[C@@H](C)NC(=O)c1nc(C2(C)CC2)no1` [Example 166, (R)-N-(1-(4-(6-(6-(4-((1-(4-(2,4-dioxotetrahydropyrimidin-1(2H)-yl)phenyl)piperidin-4-yl)methyl)piperazin-1-yl)pyridin-3-yl)-7H-pyrrolo[2,3-d]pyrimidin-4-yl)-2-methylphenyl)ethyl)-3-(1-methylcyclopropyl)-1,2,4-oxadiazole-5-carboxamide] are above 10000 nM and 1.61 nM.
In the same order, the values of `Cc1cc(-c2ncnc3[nH]c(-c4ccc(C5CCN(CCCC6CN(c7ccc8c(c7)C(=O)N(C7CCC(=O)NC7=O)C8=O)C6)CC5)cc4)cc23)ccc1CNC(=O)c1nc(C(C)(C)C)no1` (centres unmarked) [Example 6, 3-(tert-butyl)-N-(4-(6-(4-(1-(3-(1-(2-(2,6-dioxopiperidin-3-yl)-1,3-dioxoisoindolin-5-yl)azetidin-3-yl)propyl)piperidin-4-yl)phenyl)-7H-pyrrolo[2,3-d]pyrimidin-4-yl)-2-methylbenzyl)-1,2,4-oxadiazole-5-carboxamide] are above 10000 nM and 1.7 nM.
In the assay with HEK-293 cells, `Cc1cc(-c2ncnc3[nH]c(-c4ccc(C5CCN(CCC6CCN(c7ccc(N8CCC(=O)NC8=O)c(C)n7)CC6)CC5)cc4)cc23)ccc1CNC(=O)c1nc(C(C)(C)C)no1` [Example 13, 3-(tert-butyl)-N-(4-(6-(4-(1-(2-(1-(5-(2,4-dioxotetrahydropyrimidin-1(2H)-yl)-6-methylpyridin-2-yl)piperidin-4-yl)ethyl)piperidin-4-yl)phenyl)-7H-pyrrolo[2,3-d]pyrimidin-4-yl)-2-methylbenzyl)-1,2,4-oxadiazole-5-carboxamide] had an IC50 of 1860 nM. Moreover, it took 2.3 nM to reach half-maximal degradation on BTK (DC50).
In the same order, the values of `Cc1cc(-c2ncnc3[nH]c(-c4ccc(N5CCN(CC6CCN(c7ccc(N8CCC(=O)N(C)C8=O)cc7)CC6)CC5)cn4)cc23)ccc1[C@@H](C)NC(=O)c1nc(C(C)(C)C)no1` [Example 110, (R)-3-(tert-butyl)-N-(1-(2-methyl-4-(6-(5-(4-((1-(4-(3-methyl-2,4-dioxotetrahydropyrimidin-1(2H)-yl)phenyl)piperidin-4-yl)methyl)piperazin-1-yl)pyridin-2-yl)-7H-pyrrolo[2,3-d]pyrimidin-4-yl)phenyl)ethyl)-1,2,4-oxadiazole-5-carboxamide] are above 10000 nM and above 2000 nM.
In the assay on HEK-293 cells, `Cc1cc(-c2ncnc3[nH]c(-c4ccc(C5=CCN(CC6CCN(c7ccc(N8CCC(=O)NC8=O)cc7)CC6)C5)nc4)cc23)ccc1[C@@H](C)NC(=O)c1nc(C(C)(C)C)no1` [Example 159, (R)-3-(tert-butyl)-N-(1-(4-(6-(6-(1-((1-(4-(2,4-dioxotetrahydropyrimidin-1(2H)-yl)phenyl)piperidin-4-yl)methyl)-2,5-dihydro-1H-pyrrol-3-yl)pyridin-3-yl)-7H-pyrrolo[2,3-d]pyrimidin-4-yl)-2-methylphenyl)ethyl)-1,2,4-oxadiazole-5-carboxamide] registered an IC50 above 10000 nM. The same molecule displayed a DC50 at BTK of 0.93 nM.
Taken in the same sequence, the figures for `Cc1cc(-c2ncnc3[nH]c(-c4ccc(C5CCN(CC6CCN(c7ccc(N8CCC(=O)NC8=O)cc7)CC6)C5)cc4)cc23)ccc1[C@@H](C)NC(=O)c1nc(C(C)(C)C)no1` (stereo partly drawn) [Example 158, 3-(tert-butyl)-N-((1R)-1-(4-(6-(4-(1-((1-(4-(2,4-dioxotetrahydropyrimidin-1(2H)-yl)phenyl)piperidin-4-yl)methyl)pyrrolidin-3-yl)phenyl)-7H-pyrrolo[2,3-d]pyrimidin-4-yl)-2-methylphenyl)ethyl)-1,2,4-oxadiazole-5-carboxamide] were 4040 nM and 1.12 nM.
Taken in the same sequence, the figures for `Cc1cc(-c2ncnc3[nH]c(-c4ccc(N5CCN(C6CC(c7ccc(C8CCC(=O)NC8=O)cc7)C6)CC5)cc4)cc23)ccc1[C@@H](C)NC(=O)c1nc(C(C)(C)C)no1` (stereo partly drawn) [Example 153, 3-(tert-butyl)-N-((1R)-1-(4-(6-(4-(4-(3-(4-(2,6-dioxopiperidin-3-yl)phenyl)cyclobutyl)piperazin-1-yl)phenyl)-7H-pyrrolo[2,3-d]pyrimidin-4-yl)-2-methylphenyl)ethyl)-1,2,4-oxadiazole-5-carboxamide] were 9580 nM and 2.02 nM.
